Like-named read-outs stand apart in the source and are kept apart here.
How the values were obtained:
[1] = molecular target: FGFR1 (Homo sapiens (Human), UniProt P11362); assay: FGFR Enzymatic Assay (FRET peptide phosphorylation), FGFR1
[2] = molecular target: FGFR2 (Homo sapiens (Human), UniProt P21802); assay: FGFR Enzymatic Assay (FRET peptide phosphorylation), FGFR2; type: biochemical
Description: (§1) The inhibitor potency of the exemplified compounds was measured in an enzyme assay that measures peptide phosphorylation using FRET measurements to detect product formation. Inhibitors were serially diluted in DMSO and a volume of 0.5 μL was transferred to the wells of a 384-well plate.
(§2) The enzymes were purchased from Millipore or Invitrogen.
(§3) GraphPad prism3 was used to analyze the data.

[3] = molecular target: FGFR3 enzyme (Homo sapiens (Human), UniProt P22607); assay: FGFR Enzymatic Assay (FRET peptide phosphorylation), FGFR3; type: biochemical; conditions: for FGFR1/FGFR3 IC50 ratio / FGFR4/FGFR3 IC50 ratio: FGFR3 selectivity; for IC50: read-out: FGFR3 IC50
FGFR3 enzyme, sequence (P22607 23-806): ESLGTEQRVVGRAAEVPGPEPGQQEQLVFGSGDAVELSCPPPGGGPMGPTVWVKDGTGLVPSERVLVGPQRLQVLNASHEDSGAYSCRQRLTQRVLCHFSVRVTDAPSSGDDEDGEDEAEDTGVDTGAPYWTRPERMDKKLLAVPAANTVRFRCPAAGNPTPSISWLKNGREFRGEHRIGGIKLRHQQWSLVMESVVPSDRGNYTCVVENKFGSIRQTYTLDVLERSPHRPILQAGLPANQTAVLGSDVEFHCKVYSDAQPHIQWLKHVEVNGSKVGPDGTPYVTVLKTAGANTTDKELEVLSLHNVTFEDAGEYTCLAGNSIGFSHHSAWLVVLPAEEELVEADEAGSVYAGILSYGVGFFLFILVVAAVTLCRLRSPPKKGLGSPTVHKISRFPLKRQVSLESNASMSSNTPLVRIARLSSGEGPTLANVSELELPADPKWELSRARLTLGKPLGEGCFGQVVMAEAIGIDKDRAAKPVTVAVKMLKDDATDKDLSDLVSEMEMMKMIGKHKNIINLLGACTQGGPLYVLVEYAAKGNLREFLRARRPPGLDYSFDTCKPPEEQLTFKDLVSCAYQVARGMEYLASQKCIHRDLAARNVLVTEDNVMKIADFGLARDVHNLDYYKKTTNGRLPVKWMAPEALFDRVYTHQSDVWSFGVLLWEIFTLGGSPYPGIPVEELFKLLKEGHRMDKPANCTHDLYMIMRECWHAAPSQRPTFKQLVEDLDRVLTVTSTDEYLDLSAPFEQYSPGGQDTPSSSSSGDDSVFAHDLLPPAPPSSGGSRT
Description: as §1, §3

[4] = molecular target: FGFR4 (Homo sapiens (Human), UniProt P22455); assay: FGFR Enzymatic Assay (FRET peptide phosphorylation), FGFR4; type: biochemical; conditions: for FGFR1/FGFR4 IC50 ratio / FGFR2/FGFR4 IC50 ratio / FGFR3/FGFR4 IC50 ratio: FGFR4 selectivity
FGFR4, sequence (P22455 22-802): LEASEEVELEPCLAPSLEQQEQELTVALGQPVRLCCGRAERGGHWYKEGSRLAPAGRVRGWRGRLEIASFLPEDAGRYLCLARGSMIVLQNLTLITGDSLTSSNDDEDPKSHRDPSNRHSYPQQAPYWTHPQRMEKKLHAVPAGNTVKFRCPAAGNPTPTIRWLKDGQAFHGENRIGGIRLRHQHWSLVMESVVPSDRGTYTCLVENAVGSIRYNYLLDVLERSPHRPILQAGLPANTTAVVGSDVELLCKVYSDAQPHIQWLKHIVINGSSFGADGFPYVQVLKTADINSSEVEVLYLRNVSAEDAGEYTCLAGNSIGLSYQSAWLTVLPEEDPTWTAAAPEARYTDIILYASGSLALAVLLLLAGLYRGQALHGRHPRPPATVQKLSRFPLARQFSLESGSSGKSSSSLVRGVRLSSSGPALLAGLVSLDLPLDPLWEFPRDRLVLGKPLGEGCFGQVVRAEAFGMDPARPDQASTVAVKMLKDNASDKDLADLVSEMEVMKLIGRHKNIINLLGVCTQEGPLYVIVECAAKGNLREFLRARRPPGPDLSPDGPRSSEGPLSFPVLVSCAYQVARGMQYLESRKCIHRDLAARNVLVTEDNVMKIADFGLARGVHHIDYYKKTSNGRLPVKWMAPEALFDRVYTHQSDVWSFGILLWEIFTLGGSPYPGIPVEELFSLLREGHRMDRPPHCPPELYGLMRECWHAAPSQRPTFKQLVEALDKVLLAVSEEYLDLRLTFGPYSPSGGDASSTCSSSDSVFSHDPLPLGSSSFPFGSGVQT
Description: as §1, §2, §3

[5] = FGFR1 IC50 (nM), pre-incubated for 4 hours
[6] = FGFR1 IC50 (nM), pre-incubated for 5 to 10 minutes
[7] = pre-incubated for 5 to 10 minutes
[8] = read-out: FGFR1 IC50, pre-incubated for 4 hours

FGFR2, sequence (P21802 22-821): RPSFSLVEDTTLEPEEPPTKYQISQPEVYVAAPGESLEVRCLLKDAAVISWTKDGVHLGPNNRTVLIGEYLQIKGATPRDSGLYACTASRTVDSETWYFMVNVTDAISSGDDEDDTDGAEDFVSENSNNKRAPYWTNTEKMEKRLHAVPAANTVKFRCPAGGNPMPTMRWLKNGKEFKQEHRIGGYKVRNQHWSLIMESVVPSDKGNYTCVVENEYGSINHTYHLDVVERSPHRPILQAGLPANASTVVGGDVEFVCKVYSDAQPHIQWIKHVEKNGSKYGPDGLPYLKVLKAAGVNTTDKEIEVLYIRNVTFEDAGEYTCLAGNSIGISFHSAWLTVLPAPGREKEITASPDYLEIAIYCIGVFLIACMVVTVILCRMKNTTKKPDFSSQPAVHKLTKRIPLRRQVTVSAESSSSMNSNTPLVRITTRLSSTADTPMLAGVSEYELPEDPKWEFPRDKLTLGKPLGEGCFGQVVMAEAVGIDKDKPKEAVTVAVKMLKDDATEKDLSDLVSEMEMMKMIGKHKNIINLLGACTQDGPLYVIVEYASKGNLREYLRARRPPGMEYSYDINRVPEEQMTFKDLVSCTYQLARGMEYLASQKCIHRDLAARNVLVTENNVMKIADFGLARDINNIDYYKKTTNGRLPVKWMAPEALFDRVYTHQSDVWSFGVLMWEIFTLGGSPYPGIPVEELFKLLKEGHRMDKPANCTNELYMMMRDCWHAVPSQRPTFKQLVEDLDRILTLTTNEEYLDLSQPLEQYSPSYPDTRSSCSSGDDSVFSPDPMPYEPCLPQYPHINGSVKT
FGFR1, sequence (P11362 22-822): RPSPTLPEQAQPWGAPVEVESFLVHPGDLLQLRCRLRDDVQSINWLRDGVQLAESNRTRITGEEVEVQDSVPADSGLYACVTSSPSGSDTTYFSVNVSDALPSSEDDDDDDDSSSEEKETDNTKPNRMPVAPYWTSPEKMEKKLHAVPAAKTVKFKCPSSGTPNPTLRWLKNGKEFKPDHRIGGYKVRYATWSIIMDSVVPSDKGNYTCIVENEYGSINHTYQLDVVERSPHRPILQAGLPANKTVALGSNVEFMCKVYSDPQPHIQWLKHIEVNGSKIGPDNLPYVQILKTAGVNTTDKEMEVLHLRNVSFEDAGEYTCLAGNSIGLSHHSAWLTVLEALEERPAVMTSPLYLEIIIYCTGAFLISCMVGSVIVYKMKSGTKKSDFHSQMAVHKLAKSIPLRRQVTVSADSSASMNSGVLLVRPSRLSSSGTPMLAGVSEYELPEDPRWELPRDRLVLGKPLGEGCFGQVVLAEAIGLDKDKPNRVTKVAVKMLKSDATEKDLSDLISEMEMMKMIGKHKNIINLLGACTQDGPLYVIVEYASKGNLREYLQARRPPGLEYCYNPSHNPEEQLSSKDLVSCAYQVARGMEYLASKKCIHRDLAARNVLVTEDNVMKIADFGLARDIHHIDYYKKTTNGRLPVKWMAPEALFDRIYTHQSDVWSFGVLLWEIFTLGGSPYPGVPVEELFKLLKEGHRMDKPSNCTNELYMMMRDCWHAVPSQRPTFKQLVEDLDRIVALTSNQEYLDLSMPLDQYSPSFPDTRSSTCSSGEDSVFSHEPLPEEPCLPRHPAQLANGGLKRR

Structure (SMILES) | IC50 [1, 5] [nM] | IC50 ([2]; pre-incubated for 4 hours) [nM] | FGFR1/FGFR3 IC50 ratio ([3]; pre-incubated for 4 hours) | FGFR4/FGFR3 IC50 ratio ([3]; pre-incubated for 4 hours) | IC50 ([3]; pre-incubated for 4 hours) [nM] | IC50 ([4]; pre-incubated for 4 hours) [nM] | also measured
COc1cc(OC)c(F)c(N2Cc3cnc(-c4cn(C)nc4C)cc3N(c3cnc(C)cn3)C2=O)c1F [Example 107, 3-(2,6-difluoro-3,5-dimethoxyphenyl)-7-(1,3-dimethyl-1H-pyrazol-4-yl)-1-(5-methylpyrazin-2-yl)-3,4-dihydropyrido[4,3-d]pyrimidin-2(1H)-one] | 30 to 200 | 10 to 30 | >3 | >10 | 10 to 30 | 30 to 200 | 
COc1cc(OC)c(F)c(N2Cc3cnc(-c4cn(C)nc4C)cc3N(c3cccc(F)c3)C2=O)c1F [Example 99, 3-(2,6-difluoro-3,5-dimethoxyphenyl)-7-(1,3-dimethyl-1H-pyrazol-4-yl)-1-(3-fluorophenyl)-3,4-dihydropyrido[4,3-d]pyrimidin-2(1H)-one] | 30 to 200 | < 10 | >5 | >5 | < 10 | 30 to 200 | 
COc1cc(OC)c(F)c(N2Cc3cnc(-c4cn(C)nc4C)cc3N(c3ccc(CC#N)cc3)C2=O)c1F [Example 97, 2-(4-(3-(2,6-difluoro-3,5-dimethoxyphenyl)-7-(1,3-dimethyl-1H-pyrazol-4-yl)-2-oxo-3,4-dihydropyrido[4,3-d]pyrimidin-1(2H)-yl)phenyl)acetonitrile] | 30 to 200 | < 10 | >5 | >10 | < 10 | 30 to 200 | 
CCN1C(=O)N(c2c(F)c(OC)cc(OC)c2F)Cc2cnc(-c3ccccc3)cc21 [Example 22, 3-(2,6-difluoro-3,5-dimethoxyphenyl)-1-ethyl-7-phenyl-3,4-dihydropyrido[4,3-d]pyrimidin-2(1H)-one] | 30 to 200 | 10 to 30 | >5 |  | 10 to 30 | 10 to 30 | 
COc1ccc(N2C(=O)N(c3c(F)c(OC)cc(OC)c3F)Cc3cnc(-c4cn(C)nc4C)cc32)cc1 [Example 104, 3-(2,6-difluoro-3,5-dimethoxyphenyl)-7-(1,3-dimethyl-1H-pyrazol-4-yl)-1-(4-methoxyphenyl)-3,4-dihydropyrido[4,3-d]pyrimidin-2(1H)-one] | 10 to 30 | < 10 | >3 | >5 | < 10 | 30 to 200 | 
COc1cc(OC)c(F)c(N2Cc3cnc(-c4ccc(C5(C#N)CCC5)nc4)cc3N(CC3CC3)C2=O)c1F [Example 140, 1-(5-(1-(cyclopropylmethyl)-3-(2,6-difluoro-3,5-dimethoxyphenyl)-2-oxo-1,2,3,4-tetrahydropyrido[4,3-d]pyrimidin-7-yl)pyridin-2-yl)cyclobutanecarbonitrile] |  |  |  |  |  |  | IC50 [1, 6]: 30 to 200 nM; IC50 [2, 7]: < 10 nM; IC50 [3, 7]: 10 to 30 nM; IC50 [4, 7]: 30 to 200 nM
COc1cc(OC)c(F)c(N2Cc3cnc(-c4cn(C)nc4C)cc3N(c3ccc(F)c(C#N)c3)C2=O)c1F [Example 66, 5-(3-(2,6-difluoro-3,5-dimethoxyphenyl)-7-(1,3-dimethyl-1H-pyrazol-4-yl)-2-oxo-3,4-dihydropyrido[4,3-d]pyrimidin-1(2H)-yl)-2-fluorobenzonitrile] |  | 30 to 200 | >5 | >5 | 10 to 30 | 30 to 200 | IC50 [1, 8]: > 200 nM
CNS(=O)(=O)c1cccc(N2C(=O)N(c3c(F)c(OC)cc(OC)c3F)Cc3cnc(-c4cn(C)nc4C)cc32)c1 [Example 111, 3-(3-(2,6-difluoro-3,5-dimethoxyphenyl)-7-(1,3-dimethy-1H-pyrazol-4-yl)-2-oxo-3,4-dihydropyrido[4,3-d]pyrimidin-1(2H)-yl)-N-methylbenzenesulfonamide] | 10 to 30 | < 10 | >3 | >5 | < 10 | 30 to 200 | 
COc1cc(OC)c(F)c(N2Cc3cnc(-c4cn(C)nc4C)cc3N(Cc3cccnn3)C2=O)c1F [Example 88, 3-(2,6-difluoro-3,5-dimethoxyphenyl)-7-(1,3-dimethyl-1H-pyrazol-4-yl)-1-(pyridazin-3-ylmethyl)-3,4-dihydropyrido[4,3-d]pyrimidin-2(1H)-one] |  | < 10 | >5 | >10 | < 10 | < 10 | IC50 [1, 8]: < 10 nM
COc1cc(OC)c(F)c(N2Cc3cnc(-c4cc(N)ccc4C#N)cc3C3(CC3)C2=O)c1F [Example 3, 4-amino-2-(2′-(2,6-difluoro-3,5-dimethoxyphenyl)-3′-oxo-2′,3′-dihydro-1′H-spiro[cyclopropane-1,4′-[2,7]naphthyridine]-6′-yl)benzonitrile] |  | > 200 |  |  | > 200 | 10 to 30 | IC50 ([1]; read-out: FGFR1 IC50, pre-incubated for 5 to 10 minutes): > 200 nM; IC50 [1, 8]: > 200 nM; IC50 [2, 7]: > 200 nM; IC50 [3, 7]: > 200 nM; FGFR1/FGFR4 IC50 ratio [4, 7]: >25; FGFR2/FGFR4 IC50 ratio [4, 7]: >25; FGFR3/FGFR4 IC50 ratio [4, 7]: >25; FGFR1/FGFR4 IC50 ratio ([4]; pre-incubated for 4 hours): >25; FGFR2/FGFR4 IC50 ratio ([4]; pre-incubated for 4 hours): >25; FGFR3/FGFR4 IC50 ratio ([4]; pre-incubated for 4 hours): >10; IC50 [4, 7]: 10 to 30 nM
COc1cc(OC)c(F)c(N2Cc3cnc(-c4cn(C)nc4C)cc3N(Cc3cnn(CC4CCCO4)c3)C2=O)c1F (stereo not drawn) [Example 127, 3-(2,6-difluoro-3,5-dimethoxyphenyl)-7-(1,3-dimethyl-1H-pyrazol-4-yl)-1-((1-((tetrahydrofuran-2-yl)methyl)-1H-pyrazol-4-yl)methyl)-3,4-dihydropyrido[4,3-d]pyrimidin-2(1H)-one] |  |  |  |  |  |  | IC50 [1, 6]: 30 to 200 nM; IC50 [2, 7]: 10 to 30 nM; IC50 [3, 7]: 10 to 30 nM; IC50 [4, 7]: 30 to 200 nM
COc1cc(OC)c(F)c(N2Cc3cnc(-c4cn(C)nc4C)cc3N(Cc3ccc(F)cc3)C2=O)c1F [Example 34, 3-(2,6-difluoro-3,5-dimethoxyphenyl)-7-(1,3-dimethyl-1H-pyrazol-4-yl)-1-(4-fluorobenzyl)-3,4-dihydropyrido[4,3-d]pyrimidin-2(1H)-one] | 30 to 200 | 10 to 30 | >5 | >10 | < 10 | 30 to 200 | 
COc1cc(OC)c(F)c(N2Cc3cnc(-c4cn(C5CCN(C)C5)nc4C)cc3C3(CC3)C2=O)c1F (stereo not drawn) [Example 163, 2′-(2,6-difluoro-3,5-dimethoxyphenyl)-6′-(3-methyl-1-(1-methylpyrrolidin-3-yl)-1H-pyrazol-4-yl)-1′H-spiro[cyclopropane-1,4′-[2,7]naphthyridin]-3′(2′H)-one] | 30 to 200 | < 10 | >3 | >3 | < 10 | 30 to 200 | 
COc1cnc(N2C(=O)N(c3c(F)c(OC)cc(OC)c3F)Cc3cnc(-c4cn(C)nc4C)cc32)cn1 [Example 112, 3-(2,6-difluoro-3,5-dimethoxyphenyl)-7-(1,3-dimethyl-1H-pyrazol-4-yl)-1-(5-methoxypyrazin-2-yl)-3,4-dihydropyrido[4,3-d]pyrimidin-2(1H)-one] | 30 to 200 | < 10 | >3 | >5 | < 10 | 30 to 200 | 
COc1cc(OC)c(F)c(N2Cc3cnc(-c4cn(C)nc4C)cc3N(c3ccc4nc(C)oc4c3)C2=O)c1F [Example 75, 3-(2,6-difluoro-3,5-dimethoxyphenyl)-7-(1,3-dimethyl-1H-pyrazol-4-yl)-1-(2-methylbenzo[d]oxazol-6-yl)-3,4-dihydropyrido[4,3-d]pyrimidin-2(1H)-one] | 30 to 200 | 30 to 200 | >5 | >3 | 10 to 30 | 30 to 200 | 
COc1cc(OC)c(F)c(N2Cc3cnc(-c4cn(C)nc4C)cc3N(c3cncc(C)n3)C2=O)c1F [Example 87, 3-(2,6-difluoro-3,5-dimethoxyphenyl)-7-(1,3-dimethyl-1H-pyrazol-4-yl)-1-(6-methylpyrazin-2-yl)-3,4-dihydropyrido[4,3-d]pyrimidin-2(1H)-one] | 30 to 200 | < 10 | >5 | >10 | < 10 | 30 to 200 | 

From patent US9708318B2, “Bicyclic heterocycles as FGFR4 inhibitors” (Incyte Corporation, priority 2015, dated 2017)
